The numbers were not newly measured in US12427145B2, “Controlled release pharmaceutical composition of Selexipag or it's active metabolite” (Innovate Therapeutics LLC, priority 2019, dated 2025), which cites them from elsewhere.

For data set [1] the following is noted: fasting condition.
For data set [2] the following is noted: study AC-065A303, 52 subjects out of 218 subjects.
For data set [3] the following is noted: oral immediate release dosage form, out of 575 subjects.

SMILES strings stand for the structures. Read-outs that look alike come from different tables or passages of the source.

As to `CC(C)N(CCCCOCC(=O)NS(C)(=O)=O)c1cnc(-c2ccccc2)c(-c2ccccc2)n1` [Selexipag], in data set [1] (200 μg Selexipag, 1 out of 6 subjects), the “subjects reporting Headache” value is recorded as 17%. In addition, the “subjects reporting Headache” value in data set [1] (600 μg Selexipag, 2 out of 6 subjects) is on record as 33%. The “subjects reporting Headache” value in data set [1] (800 μg Selexipag, 5 out of 6 subjects) was 83%. Further, in data set [2], the “subjects with at least 1 adverse event leading to discontinuation of study drug” value is recorded as 24%. In addition, in data set [3], the “Arthralgia, subjects” value is listed as 11%; the “Diarrhea, subjects” value is 42%; the “Flushing, subjects” value is reported as 12%; the “Headache, subjects” value is given as 65%. Also, in data set [3], the “Jaw pain, subjects” value is listed as 26%; the “Myalgia, subjects” value was 16%; the “Nausea, subjects” value is 33%; the “Pain in Extremity, subjects” value is reported as 17%. In data set [3], the “Rash, subjects” value is 11% and the “Vomiting, subjects” value is 18%.
